Measurements taken from patent publication US10947227B2, “Tricyclic heterocyclic compounds as sting activators” (Incyte Corporation, priority 2018, dated 2021).

Test system: IRF3 activation in THP-1 Dual Cells
Assay: IRF3 activation assay in THP-1 Dual Cells (QUANTI-Blue readout)
Assay type: cell-based
Settings: Homo sapiens, THP1-Dual, 24 h
Experimental: THP-1 Dual Cells (Invivogen) were maintained in RPMI1640 medium with addition of 10% FBS, 100 μg/ml zeocin, 10 μg/ml blasticidin. Cells were added in a 96-well flat bottom assay plate at 100,000 per well in 100 μL complete RPMI medium. Test compounds were prepared by serial dilution in complete RPMI medium and 100 μL test compounds were transferred to each corresponding well. The assay plate was incubated at 37° C., 5% CO2 for 24 hours. After the overnight incubation, 20 μL of the culture supernatants were collected, followed by addition of 180 μL of QUANTI-Blue (Invivogen) to assess IRF3 activity. The amount of IRF3 activation was assessed by reading the absorbance at 620-655 nm with a microplate reader 2 hours later. The culture supernatant from the untreated THP-1 cells was used as the negative control. To determine the NF-κB activation, another 20 μL of culture supernatant were transferred to a 96-well white plate, followed by addition of 50 μL of Quanti-Luc™ assay solution (Invivogen). The amount of NF-κB activation induced by the test compounds were determined by the luminescence above the untreated control. EC50 determination was performed by fitting the curve of percent control activity versus the log of the compound concentration using the GraphPad Prism 6.0 software.

SMILES | EC50 (Table 1, 24 hours incubation) | EC50 (Table 2, 24 hours incubation)
CCn1nc(C)cc1C(=O)Nc1nc2cc(C(N)=O)cc(C)c2n1C/C=C/Cn1c2ccc(C(N)=O)cc2c2cnc(-c3cc(C(F)(F)F)nn3CC)nc21 [Example 9, (E)-9-(4-(5-carbamoyl-2-(1-ethyl-3-methyl-1H-pyrazole-5-carboxamido)-7-methyl-1H-benzo[d]imidazol-1-yl)but-2-enyl)-2-(1-ethyl-3-(trifluoromethyl)-1H-pyrazol-5-yl)-9H-pyrimido[4,5-b]indole-6-carboxamide] | < 1000 nM | 200 to 500 nM
CCn1nc(C)cc1C(=O)Nc1nc2cc(C(N)=O)cc(C)c2n1C/C=C/Cn1c2nc(-c3cc(C)nn3CC)ncc2c2cc(C(N)=O)cc(OC)c21 [Example 10, (E)-9-(4-(5-carbamoyl-2-(1-ethyl-3-methyl-1H-pyrazole-5-carboxamido)-7-methyl-1H-benzo[d]imidazol-1-yl)but-2-enyl)-2-(1-ethyl-3-methyl-1H-pyrazol-5-yl)-8-methoxy-9H-pyrimido[4,5-b]indole-6-carboxamide] | < 200 nM | < 50 nM
CCn1nc(C)cc1C(=O)Nc1nc2cc(C(N)=O)cc(C)c2n1C/C=C/Cn1c2nc(-c3cc(C)nn3CC)ncc2c2cc(C(N)=O)cc(OCCCN3CCOCC3)c21 [Example 11, (E)-9-(4-(5-carbamoyl-2-(1-ethyl-3-methyl-1H-pyrazole-5-carboxamido)-7-methyl-1H-benzo[d]imidazol-1-yl)but-2-enyl)-2-(1-ethyl-3-methyl-1H-pyrazol-5-yl)-8-(3-morpholinopropoxy)-9H-pyrimido[4,5-b]indole-6-carboxamide] | < 200 nM | < 50 nM
CCn1nc(C)cc1C(=O)Nc1nc2cc(C(N)=O)cc(C)c2n1C/C=C/Cn1c2nc(-c3cc(C)nn3CC)ncc2c2cc(C(N)=O)cc(OCCCOC)c21 [Example 12, (E)-9-(4-(5-carbamoyl-2-(1-ethyl-3-methyl-1H-pyrazole-5-carboxamido)-7-methyl-1H-benzo[d]imidazol-1-yl)but-2-enyl)-2-(1-ethyl-3-methyl-1H-pyrazol-5-yl)-8-(3-methoxypropoxy)-9H-pyrimido[4,5-b]indole-6-carboxamide] | < 200 nM | < 50 nM
CCn1nc(C)cc1C(=O)Nc1nc2cc(C(N)=O)cc(C)c2n1C/C=C/Cn1c2nc(-c3cc(C)nn3CC)ncc2c2cc(C(N)=O)cc(OCCCO)c21 [Example 13, (E)-9-(4-(5-carbamoyl-2-(1-ethyl-3-methyl-1H-pyrazole-5-carboxamido)-7-methyl-1H-benzo[d]imidazol-1-yl)but-2-enyl)-2-(1-ethyl-3-methyl-1H-pyrazol-5-yl)-8-(3-hydroxypropoxy)-9H-pyrimido[4,5-b]indole-6-carboxamide] | < 200 nM | < 50 nM
CCn1nc(C)cc1C(=O)Nc1nc2cc(C(N)=O)cc(C)c2n1C/C=C/Cn1c2nc(-c3cc(C)nn3CC)ccc2c2cc(C(N)=O)cc(OC)c21 [Example 14, (E)-9-(4-(5-carbamoyl-2-(1-ethyl-3-methyl-1H-pyrazole-5-carboxamido)-7-methyl-1H-benzo[d]imidazol-1-yl)but-2-enyl)-2-(1-ethyl-3-methyl-1H-pyrazol-5-yl)-8-methoxy-9H-pyrido[2,3-b]indole-6-carboxamide] | < 200 nM | < 50 nM
CCn1nc(C)cc1C(=O)Nc1nc2cc(C(N)=O)cc(OCCCOC(=O)c3cc(C)nn3CC)c2n1C/C=C/Cn1c2nc(-c3cc(C)nn3CC)ncc2c2cc(C(N)=O)cc(OC)c21 [Example 15, (E)-3-((5-carbamoyl-1-(4-(6-carbamoyl-2-(1-ethyl-3-methyl-1H-pyrazol-5-yl)-8-methoxy-9H-pyrimido[4,5-b]indol-9-yl)but-2-en-1-yl)-2-(1-ethyl-3-methyl-1H-pyrazole-5-carboxamido)-1H-benzo[d]imidazol-7-yl)oxy)propyl 1-ethyl-3-methyl-1H-pyrazole-5-carboxylate] | < 200 nM | < 50 nM
CCn1nc(C)cc1C(=O)Nc1nc2cc(C(N)=O)cc(OCCCO)c2n1C/C=C/Cn1c2nc(-c3cc(C)nn3CC)ncc2c2cc(C(N)=O)cc(OC)c21 [Example 16, (E)-9-(4-(5-carbamoyl-2-(1-ethyl-3-methyl-1H-pyrazole-5-carboxamido)-7-(3-hydroxypropoxy)-1H-benzo[d]imidazol-1-yl)but-2-en-1-yl)-2-(1-ethyl-3-methyl-1H-pyrazol-5-yl)-8-methoxy-9H-pyrimido[4,5-b]indole-6-carboxamide] | < 200 nM | < 50 nM
CCn1nc(C)cc1C(=O)Nc1nc2cc(C(N)=O)cc(OCCCOC(=O)c3cc(C)nn3CC)c2n1C/C=C/Cn1c2ccc(C(N)=O)cc2c2cnc(-c3cc(C)nn3CC)nc21 [Example 17, (E)-3-((5-carbamoyl-1-(4-(6-carbamoyl-2-(1-ethyl-3-methyl-1H-pyrazol-5-yl)-9H-pyrimido[4,5-b]indol-9-yl)but-2-en-1-yl)-2-(1-ethyl-3-methyl-1H-pyrazole-5-carboxamido)-1H-benzo[d]imidazol-7-yl)oxy)propyl 1-ethyl-3-methyl-1H-pyrazole-5-carboxylate] | < 200 nM | < 50 nM
CCn1nc(C)cc1C(=O)Nc1nc2cc(C(N)=O)cc(OCCCO)c2n1C/C=C/Cn1c2ccc(C(N)=O)cc2c2cnc(-c3cc(C)nn3CC)nc21 [Example 18, (E)-9-(4-(5-carbamoyl-2-(1-ethyl-3-methyl-1H-pyrazole-5-carboxamido)-7-(3-hydroxypropoxy)-1H-benzo[d]imidazol-1-yl)but-2-en-1-yl)-2-(1-ethyl-3-methyl-1H-pyrazol-5-yl)-9H-pyrimido[4,5-b]indole-6-carboxamide] | < 200 nM | < 50 nM
CCn1nc(C)cc1C(=O)Nc1nc2cc(C(N)=O)cc(OCCCOC(=O)c3cc(C)nn3CC)c2n1C/C=C/Cn1c2nc(-c3cc(C)nn3CC)ncc2c2cc(C(N)=O)cc(OCCCN3CCOCC3)c21 [Example 19, (E)-3-((5-carbamoyl-1-(4-(6-carbamoyl-2-(1-ethyl-3-methyl-1H-pyrazol-5-yl)-8-(3-morpholinopropoxy)-9H-pyrimido[4,5-b]indol-9-yl)but-2-en-1-yl)-2-(1-ethyl-3-methyl-1H-pyrazole-5-carboxamido)-1H-benzo[d]imidazol-7-yl)oxy)propyl 1-ethyl-3-methyl-1H-pyrazole-5-carboxylate] | < 200 nM | < 50 nM
CCn1nc(C)cc1C(=O)Nc1nc2cc(C(N)=O)cc(OCCCO)c2n1C/C=C/Cn1c2nc(-c3cc(C)nn3CC)ncc2c2cc(C(N)=O)cc(OCCCN3CCOCC3)c21 [Example 20, (E)-9-(4-(5-carbamoyl-2-(1-ethyl-3-methyl-1H-pyrazole-5-carboxamido)-7-(3-hydroxypropoxy)-1H-benzo[d]imidazol-1-yl)but-2-en-1-yl)-2-(1-ethyl-3-methyl-1H-pyrazol-5-yl)-8-(3-morpholinopropoxy)-9H-pyrimido[4,5-b]indole-6-arboxamide] | < 200 nM | < 50 nM
CCn1nc(C)cc1C(=O)Nc1nc2cc(C(N)=O)cc(OCCCOC(=O)c3cc(C)nn3CC)c2n1C/C=C/Cn1c2nc(-c3cc(C)nn3CC)ncc2c2cc(C(N)=O)cc(OCCCOC)c21 [Example 21, (E)-3-((5-carbamoyl-1-(4-(6-carbamoyl-2-(1-ethyl-3-methyl-1H-pyrazol-5-yl)-8-(3-methoxypropoxy)-9H-pyrimido[4,5-b]indol-9-yl)but-2-en-1-yl)-2-(1-ethyl-3-methyl-1H-pyrazole-5-carboxamido)-1H-benzo[d]imidazol-7-yl)oxy)propyl 1-ethyl-3-methyl-1H-pyrazole-5-carboxylate] | < 200 nM | < 50 nM
